Test results taken from patent US9789096B2, “Methods and compositions for selective and targeted cancer therapy” (Board of Regents of the University of Texas System, priority 2013, dated 2017).
Read-outs that look alike come from different tables or passages of the source.

What was measured:
Format in all cases: cell-based, human
[1] = test system: H1819; experiment: Cell viability dose-response, H1819; conditions: for AC50: Homo sapiens, NCI-H1819, Table 8, 12-point dose-response starting at 50 micromolar
Summary of the method: (§1)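 Viability read as total ATP (Cell Titer Glo) following 4 days' compound exposure, with IC50 derived from dose-response curves. Duplicate 12-point series, top concentration 50 micromolar with 3-fold steps, on cells seeded at 15% confluence in RPMI-1640, 5% FBS, 2 mM L-glutamine.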

[2] = test system: H2073; experiment: Cell viability dose-response, H2073; conditions: for AC50: NCI-H2073, Table 8, 12-point dose-response starting at 50 micromolar
Procedure: (§2) FIG. 6A. […] Cell viability is plotted vs. compound concentration. Compound was added to cells plated at 15% confluence in 96-well plates in RPMI-1640 media supplemented with 5% Fetal Bovine Serum and 2 mM L-Glutamine. After 4 days of incubation, ATP levels were measured using Cell Titer Glo (Promega). Data are presented as the average of 2 replicates ±SEM.
(§3) Selectivity may be measured by the half maximal inhibitory concentration (IC50), which, as used herein, is a measure of the effectiveness of a compound in killing cells. This quantitative measure indicates how much of a particular compound is needed to kill a particular cell population by half (e.g., as indicated by the amount of ATP). […] The IC50 can be determined by constructing a dose-response curve. The lower the IC50, the higher the potency, and the greater the difference between IC50 values for different cell lines (e.g., sensitive lines vs. insensitive lines, and sensitive lines vs. normal lines) the greater the selectivity. […]
(§4) With this information, we synthesized and tested a series of small molecules derived in conception from the oxalamide and chromone scaffold including N-acyl ureas, as shown in Tables 6-8. Each compound was tested in a 12-point dose-response study starting at 50 micromolar and decreasing in 3-fold increments to sub-nanomolar concentrations, in duplicate. Additionally, one or more additional cell line was tested in the same way.

[3] = test system: H2122; experiment: Cell viability dose-response, H2122; conditions: for AC50: NCI-H2122, Table 8, 12-point dose-response starting at 50 micromolar
Summary of the method: as §1

[4] = test system: HCC44; experiment: Cell viability dose-response, HCC44; conditions: Homo sapiens; for AC50: HCC44, Table 8, 12-point dose-response starting at 50 micromolar
Procedure: as §2, §3, §4

[5] = test system: H2009; experiment: Cell viability dose-response, H2009; conditions: Homo sapiens; for IC50: NCI-H2009; for AC50: NCI-H2009, Table 8
Procedure: as §2, §3, §4

[6] = Homo sapiens, NCI-H2073, 12-point dose-response starting at 50 micromolar, 3-fold increments, in duplicate, read-out: toxicity data, H2073
[7] = Homo sapiens, NCI-H2122, 12-point dose-response starting at 50 micromolar, 3-fold increments, in duplicate, read-out: toxicity data, H2122
[8] = HCC44, 12-point dose-response starting at 50 micromolar, 3-fold increments, in duplicate, read-out: toxicity data, HCC44
[9] = 12-point dose-response starting at 50 micromolar, 3-fold increments, in duplicate, read-out: toxicity data, H2009
[10] = 12-point dose-response starting at 50 micromolar
[11] = Homo sapiens, NCI-H2122, Table 9, competitor, read-out: IC50 to H2122 cells
[12] = HCC44, Tables 3 and 4, read-out: IC50 (uM) vs indicated non-small cell lung cancer cell line HCC44
[13] = Homo sapiens, NCI-H2122, Tables 3 and 4, read-out: IC50 (uM) vs indicated non-small cell lung cancer cell line H2122
[14] = Tables 3 and 4, read-out: IC50 (uM) vs indicated non-small cell lung cancer cell line H2009

Compound	AC50 ([3]; Homo sapiens)	IC50 [3, 7]	IC50 [4, 8]	IC50 [5, 9]	other results
O=C1/C(=C/c2ccccc2C(F)(F)F)COc2cc(OCc3cnn(-c4ccccc4)c3)ccc21 [SW209195-1]	0.085 µM	–	–	–	AC50 [1]: 49.5 µM; AC50 ([2]; Homo sapiens): 0.39 µM
C#CCOc1ccc(C(=O)c2ccc(C(=O)Nc3nc4ccc(OC)cc4s3)cc2)cc1 [SW209049-2]	–	–	–	–	IC50 ([1]; Tables 3 and 4, read-out: IC50 (uM) vs indicated non-small cell lung cancer cell line H1819): 21 µM; IC50 ([2]; Tables 3 and 4, read-out: IC50 (uM) vs indicated non-small cell lung cancer cell line H2073): 18 µM; IC50 ([3]; Tables 3 and 4, read-out: IC50 (uM) vs indicated non-small cell lung cancer cell line H2122): 0.131 µM
O=c1c(Cc2cccs2)coc2cc(OCc3cnn(-c4ccccc4)c3)ccc12 [SW209378-1]	0.081 µM	–	–	–	AC50 [1]: 49.5 µM; AC50 ([2]; Homo sapiens): 0.068 µM
O=c1c(Cc2cccc(O)c2)coc2cc(OCc3cnn(-c4ccccc4)c3)ccc12 [SW209381-1]	7.03 µM	–	–	–	AC50 [1]: 49.5 µM; AC50 ([2]; Homo sapiens): 49.5 µM
COc1ccc(CCNC(=O)C(=O)Nc2ccc(OCc3ccc(Br)cc3)cc2)cc1 [SW209048-1]	–	0.157 µM	–	–	IC50 [2, 6]: ≥ 49.5 µM
COc1ccc(CCNC(=O)C(=O)Nc2ccc(COc3ccc(Br)cc3)cc2)cc1 [SW209050-1]	–	0.031 µM	–	–	IC50 [2, 6]: 25.9 µM
COc1ccc(CCNC(=O)NC(=O)c2ccc(-c3ccncc3)cc2)cc1 [SW208404-1-A]	–	21.8 µM	≥ 49.5 µM	≥ 49.5 µM	–
COc1cccc(C(=O)c2ccc(C(=O)NC(=O)NCCc3ccc(O)cc3)cc2)c1 [SW208579-1-A]	–	0.82 µM	0.46 µM	0.42 µM	–
COc1ccc(CCNC(=O)NC(=O)c2cccc(C)c2)cc1 [SW208399-1-A]	–	≥ 49.5 µM	≥ 49.5 µM	16.5 µM	–
COc1ccc(CCNC(=O)NC(=O)c2ccc(C(=O)Nc3ccccc3OC)cc2)cc1 [SW208409-1-A]	–	0.14 µM	≥ 49.5 µM	≥ 49.5 µM	–
COc1ccc(CCNC(=O)NC(=O)c2ccc(C(N)c3ccccc3)cc2)cc1 (stereo not shown) [SW208564-1-A]	–	0.32 µM	0.06 µM	5.62 µM	–
Cc1oc2cc(OCc3cnn(-c4ccccc4)c3)ccc2c(=O)c1Oc1ccccc1F [SW 208587-1]	0.39 µM	–	–	–	AC50 [4]: 49.5 µM; AC50 [5, 10]: 16.5 µM
O=c1c(-c2ccccc2)coc2cc(OCc3cnn(-c4ccccc4)c3)ccc12 [SW 208631-1]	0.28 µM	–	–	–	AC50 [4]: 49.5 µM; AC50 [5, 10]: 49.5 µM
COc1ccc(CCNC(=O)NC(=O)c2ccc(C(=O)c3ccccc3)cc2)cc1 [SW208222-1-A]	–	0.105 µM	0.241 µM	48 µM	IC50 [3, 11]: 0.142 µM
COc1ccc(CCNC(=O)NC(=O)c2ccc(C(=O)NC3CCC3)cc2)cc1 [SW208453-1-A]	–	0.864 µM	≥ 49.5 µM	1.63 µM	–
O=c1c(Oc2ccccc2)coc2cc(OCc3cnn(-c4ccccc4)c3)ccc12 [SW 208586-1]	0.11 µM	–	–	–	AC50 [4]: 0.15 µM; AC50 [5, 10]: 49.5 µM
O=c1c(-c2ccc(O)cc2)coc2cc(OCc3cnn(-c4ccccc4)c3)ccc12 [SW208757-1]	≥ 49.5 µM	–	–	–	AC50 [4]: 49.5 µM; AC50 [5, 10]: 5.63 µM
COc1ccc(CCNC(=O)NC(=O)c2cccc(Br)c2)cc1 [SW208389-1-A]	–	≥ 49.5 µM	≥ 49.5 µM	35.6 µM	–
Cn1c(NC(=O)c2ccc(C(=O)c3ccccc3)cc2)nc2ccccc21 [SW208770-1]	–	–	–	–	IC50 [4, 12]: 12.7 µM; IC50 [3, 13]: 31.4 µM; IC50 [5, 14]: 3.06 µM
O=C(NCCc1ccc(O)cc1)NC(=O)c1ccc(Nc2ccccc2)cc1 [SW208562-1-A]	–	0.09 µM	12.2 µM	0.01 µM	IC50 [3, 11]: 0.0737 µM
COc1ccc(CCNC(=O)NC(=O)c2ccc(C(=O)NCc3ccccc3)cc2)cc1 [SW208412-1-A]	–	0.27 µM	≥ 49.5 µM	2.14 µM	IC50 [3, 11]: 0.277 µM
O=C(Nc1ncc(-c2ccccc2)s1)c1ccc(C(=O)c2ccccc2)cc1 [SW209017]	–	–	–	–	IC50 [4, 12]: 49.5 µM; IC50 [3, 13]: 5.76 µM; IC50 [5, 14]: 4.95 µM
